The experiment relates to Osteoblast. The experiment can be described thus: Osteoblast activity in neonatal rat calvarie-derived primary osteoblasts assessed as [3H]thymidine incorporation at 10^-10 to 10^-8 M by beta counting. In kind it is functional, cell-based. (Dividing cells build labelled thymidine or BrdU into new DNA.)

Structures are written as SMILES. Calls of active or inactive are those of the source. The calls are words filed in the database; no cut-off is given here.

As for `C[C@H](NC(=O)[C@@H]1CC=CC[C@H](NC(=O)[C@@H](N)CCCCN)C(=O)N[C@@H](CC(N)=O)C(=O)N[C@@H]([C@@H](C)O)C(=O)N[C@@H](C)C(=O)N[C@@H]([C@@H](C)O)C(=O)N1)C(N)=O` (mixture of isomers), the outcome was Active. On to `C[C@H](NC(=O)[C@@H]1CC=CC[C@H](NC(=O)[C@@H](N)CCCCN)C(=O)N[C@@H](CC(N)=O)C(=O)N2CCC[C@H]2C(=O)N[C@@H](C)C(=O)N[C@@H]([C@@H](C)O)C(=O)N1)C(N)=O` (mixture of isomers; 2a), for which the outcome was inactive. The value for `C[C@H](NC(=O)[C@@H]1CC=CC[C@H](NC(=O)[C@@H](N)CCCCN)C(=O)N[C@@H](CC(N)=O)C(=O)N2CCC[C@H]2C(=O)N[C@@H](C)C(=O)N[C@@H]([C@@H](C)O)C(=O)N1)C(N)=O` (mixture of isomers; 2b) was “inactive”; that for `C[C@H](NC(=O)[C@@H]1CCCCNC(=O)OCC=CCOC(=O)NCCCC[C@H](NC(=O)[C@@H](N)CCCCN)C(=O)N[C@@H](CC(N)=O)C(=O)N[C@@H]([C@@H](C)O)C(=O)N[C@@H](C)C(=O)N[C@@H]([C@@H](C)O)C(=O)N1)C(N)=O` (mixture of isomers; 5a) was “Active”. For the compound `C[C@H](NC(=O)[C@@H]1CCCCNC(=O)OCC=CCOC(=O)NCCCC[C@H](NC(=O)[C@@H](N)CCCCN)C(=O)N[C@@H](CC(N)=O)C(=O)N[C@@H]([C@@H](C)O)C(=O)N[C@@H](C)C(=O)N[C@@H]([C@@H](C)O)C(=O)N1)C(N)=O` (mixture of isomers; 5b), the result was Active.
